Measurements reported in the supplement of paper PMC10307832.

What was measured:
Assay in all cases: relative viability (nuclei count vs DMSO), 5 days (fraction); higher = more cells survive
OSI-027 + Pemetrexed = compound: COc1cccc2cc(-c3nc([C@H]4CC[C@H](C(=O)O)CC4)n4ncnc(N)c34)[nH]c12 [OSI-027] + Nc1nc2[nH]cc(CCc3ccc(C(=O)N[C@@H](CCC(=O)O)C(=O)O)cc3)c2c(=O)[nH]1 [Pemetrexed] (partner 0.2 µM)
In short: (§1)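 Lung cancer cell lines were seeded in 1536-well plates and dosed by pin tool the next day, with either a single drug or a fixed anchor-drug dose combined with five library-drug doses (not always all listed) spaced in √10 steps. Five days later, one step fixed the cells and stained their nuclei (final 0.05% Triton X-100, 1% formaldehyde, 1 ug/ml Hoechst), and nuclei were counted on 4× images. Relative viability is the nuclei count in treated wells divided by the count in vehicle wells, and each value is the median of duplicate plates.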

Vemurafenib + Bortezomib = compound: CCCS(=O)(=O)Nc1ccc(F)c(C(=O)c2c[nH]c3ncc(-c4ccc(Cl)cc4)cc23)c1F [Vemurafenib] + CC(C)C[C@H](NC(=O)[C@H](Cc1ccccc1)NC(=O)c1cnccn1)B(O)O [Bortezomib] (partner 0.002 µM)
In short: as §1

Alpelisib + Foretinib = compound: Cc1nc(NC(=O)N2CCC[C@H]2C(N)=O)sc1-c1ccnc(C(C)(C)C(F)(F)F)c1 [Alpelisib] + COc1cc2c(Oc3ccc(NC(=O)C4(C(=O)Nc5ccc(F)cc5)CC4)cc3F)ccnc2cc1OCCCN1CCOCC1 [Foretinib] (partner 0.25 µM)
In short: as §1

Alpelisib + Vorinostat = compound: Cc1nc(NC(=O)N2CCC[C@H]2C(N)=O)sc1-c1ccnc(C(C)(C)C(F)(F)F)c1 [Alpelisib] + O=C(CCCCCCC(=O)Nc1ccccc1)NO [Vorinostat] (partner 1 µM)
In short: as §1

Cell Line | relative viability (OSI-027 + Pemetrexed; first compound 0.01 µM) | relative viability (OSI-027 + Pemetrexed; first compound 0.03162 µM) | relative viability (OSI-027 + Pemetrexed; first compound 0.1 µM) | relative viability (OSI-027 + Pemetrexed; first compound 0.3162 µM) | relative viability (OSI-027 + Pemetrexed; first compound 1 µM) | relative viability (Vemurafenib + Bortezomib; first compound 0.03162 µM) | relative viability (Vemurafenib + Bortezomib; first compound 0.1 µM) | relative viability (Vemurafenib + Bortezomib; first compound 0.3162 µM) | relative viability (Vemurafenib + Bortezomib; first compound 1 µM) | relative viability (Alpelisib + Foretinib; first compound 0.04 µM) | relative viability (Alpelisib + Foretinib; first compound 0.1265 µM) | relative viability (Alpelisib + Foretinib; first compound 0.4 µM) | relative viability (Alpelisib + Foretinib; first compound 1.265 µM) | relative viability (Alpelisib + Foretinib; first compound 4 µM) | relative viability (Alpelisib + Vorinostat; first compound 0.04 µM) | relative viability (Alpelisib + Vorinostat; first compound 0.1265 µM) | relative viability (Alpelisib + Vorinostat; first compound 0.4 µM) | relative viability (Alpelisib + Vorinostat; first compound 1.265 µM) | relative viability (Alpelisib + Vorinostat; first compound 4 µM)
NCI-H520 | 0.785 | 0.645 | 0.596 | 0.487 | 0.263 | 0.46 | 0.487 | 0.722 | 0.454 | 0.682 | 0.928 | 0.838 | 0.605 | 0.582 | 0.611 | 0.743 | 0.629 | 0.603 | 0.463
NCI-H1755 | 0.5 | 0.417 | 0.454 | 0.655 | 0.439 | 0.877 | 0.878 | 0.712 | 0.931 | 0.95 | 0.924 | 0.962 | 0.785 | 0.731 | 0.774 | 0.71 | 0.873 | 0.605 | 0.632
CAL-12T | 1.17 | 1.18 | 1.22 | 0.976 | 0.527 | 0.835 |  |  | 0.974 | 1.08 | 1.24 | 1.14 | 1.06 | 1.07 | 0.755 | 0.783 | 0.948 | 0.468 | 0.64
NCI-H1734 | 0.416 | 0.436 | 0.371 | 0.412 | 0.386 | 0.855 | 1.01 | 0.709 | 0.815 | 0.749 |  | 0.786 | 0.486 | 0.356 | 0.726 | 0.686 | 0.822 | 0.642 | 0.375
NCI-H650 | 0.878 | 1.03 | 0.836 | 0.671 | 0.367 | 0.668 | 0.899 | 0.443 | 0.423 | 1.03 | 0.988 | 1.01 | 0.839 | 0.822 | 0.394 | 0.314 | 0.538 | 0.35 | 0.325
BEN | 0.78 | 0.754 | 0.472 | 0.586 | 0.46 | 0.768 | 0.933 | 0.351 | 0.554 | 0.792 | 0.401 | 0.732 | 0.737 | 0.521 | 0.588 | 0.544 | 0.715 | 0.578 | 0.584
NCI-H647 | 0.159 | 0.173 | 0.187 | 0.157 | 0.211 | 0.881 | 0.96 | 0.739 | 0.874 | 1.12 | 1.14 | 1.33 | 0.837 | 1.24 | 0.772 | 0.608 | 0.613 | 0.263 | 0.427
NCI-H661 | 0.886 | 0.941 | 0.934 | 0.882 | 0.631 | 0.877 | 0.663 | 0.765 | 0.778 | 1.02 | 1.05 | 1.08 | 1.02 | 0.92 | 0.765 | 0.795 | 0.819 | 0.755 | 0.728
NCI-H2347 | 0.438 | 0.439 | 0.484 | 0.404 | 0.427 | 0.737 | 0.79 | 0.712 | 1.02 | 0.777 | 0.98 | 0.88 | 0.647 | 0.701 | 0.524 | 0.598 | 0.766 | 0.555 | 0.49
LC-2-ad | 0.279 | 0.239 | 0.273 | 0.283 | 0.271 | 0.918 | 0.956 | 0.829 | 0.976 | 0.863 | 0.908 | 0.966 | 0.601 | 0.576 | 0.664 | 0.721 | 0.744 | 0.575 | 0.496
COR-L 105 | 1.22 | 1.18 | 1.13 | 1.04 | 0.999 | 0.772 |  | 0.485 | 0.759 | 1.08 | 1.26 | 1.02 | 1 | 1.08 | 0.867 | 0.86 | 0.784 | 0.668 | 0.838
NCI-H838 | 0.245 | 0.255 | 0.249 | 0.234 | 0.214 | 0.707 | 0.723 |  | 1.15 | 0.94 | 0.961 | 1.01 | 0.892 | 0.871 | 0.675 | 0.697 | 0.72 | 0.642 | 0.606
COR-L23 | 0.194 | 0.194 | 0.193 | 0.181 | 0.197 | 0.925 | 0.941 | 0.832 | 0.912 | 1.01 | 0.933 | 1.12 | 0.843 | 0.839 | 0.438 | 0.474 | 0.398 | 0.283 | 0.272
EMC-BAC-2 | 0.385 | 0.493 | 0.478 | 0.472 | 0.392 | 0.984 | 1.02 | 0.899 | 0.835 | 0.973 | 0.867 | 1.01 | 0.689 | 0.592 | 0.448 |  | 0.455 | 0.278 | 0.261
NCI-H3122 | 0.207 | 0.198 | 0.19 | 0.207 | 0.243 | 0.989 | 1.01 | 1.04 | 1.07 | 1.02 | 0.884 | 0.987 | 0.867 | 0.821 | 0.783 | 0.985 | 1.28 | 1.01 | 0.491
NCI-H2023 | 0.254 | 0.242 | 0.201 | 0.173 | 0.121 | 0.869 | 0.948 | 0.859 | 0.943 | 0.82 | 0.844 | 0.667 | 0.605 | 0.527 | 0.595 | 0.634 | 0.61 | 0.394 | 0.348
ChaGo-K-1 | 0.259 | 0.311 | 0.251 | 0.337 | 0.262 | 0.934 | 0.725 |  | 1.08 | 0.881 | 0.91 | 1.01 | 0.807 | 0.8 | 0.698 | 0.759 | 0.825 | 0.573 | 0.564
